# Reference: patent US11806342B2, “Diiodohydroxyquinoline for the treatment of clostridium difficile infection” (Purdue Research Foundation, priority 2019, dated 2023)
# What was measured:
# Format in all cases: cell-based, Clostridium difficile
# C. difficile I13 = assay: MIC and MBC, broth microdilution; settings: Clostridioides difficile, C. difficile I13
# Method: (§1) Antibacterial activity of Diiodohydroxyquinoline against a wide panel of Clostridium difficile strains. […] MIC50 and MIC90 are the minimum concentration of each agent that inhibited growth of 50% and 90% of the tested isolates, respectively. The minimum bactericidal concentration (MBC) of these drugs was tested by plating 5 μL from wells with no growth onto BHIS agar plates. The MBC was categorized as the lowest concentration that reduced bacterial growth by 99.9% MIC50 and MIC90 are the minimum concentration of each agent that inhibited the growth of 50% and 90% of the tested isolates, respectively. The minimum bactericidal concentration (MBC) of these drugs was tested by plating 5 μL from wells with no growth onto BHIS agar plates. The MBC was categorized as the lowest concentration that reduced bacterial growth by 99.9% [29-31].
# C. difficile HM-745 = assay: MIC and MBC, broth microdilution; settings: Clostridioides difficile, HM745, C. difficile HM-745
# Method: as §1
# C. difficile P3 = assay: MIC and MBC, broth microdilution; settings: Clostridioides difficile, C. difficile P3
# Method: as §1
# C. difficile P30 = assay: MIC and MBC, broth microdilution; settings: Clostridioides difficile, C. difficile P30
# Method: as §1
# C. difficile NR-49278 = assay: MIC and MBC, broth microdilution; settings: Clostridioides difficile, NR49278, C. difficile NR-49278
# Method: as §1
# C. difficile I11 = assay: MIC and MBC, broth microdilution; settings: Clostridioides difficile, C. difficile I11
# Method: as §1
# C. difficile I10 = assay: MIC and MBC, broth microdilution; settings: Clostridioides difficile, C. difficile I10
# Method: as §1
# C. difficile NR-49285 = assay: MIC and MBC, broth microdilution; settings: Clostridioides difficile, NR49285, C. difficile NR-49285
# Method: as §1
# C. difficile P15 = assay: MIC and MBC, broth microdilution; settings: Clostridioides difficile, C. difficile P15
# Method: as §1
# C. difficile P5 = assay: MIC and MBC, broth microdilution; settings: Clostridioides difficile, C. difficile P5
# Method: as §1
# C. difficile ATCC 1801 = assay: MIC and MBC, broth microdilution; settings: Clostridioides difficile, ATCC1801, C. difficile ATCC 1801
# Method: as §1
# C. difficile P20 = assay: MIC and MBC, broth microdilution; settings: Clostridioides difficile, C. difficile P20
# Method: as §1
# C. difficile I6 = assay: MIC and MBC, broth microdilution; settings: Clostridioides difficile, C. difficile I6
# Method: as §1
# C. difficile P19 = assay: MIC and MBC, broth microdilution; settings: Clostridioides difficile, C. difficile P19
# Method: as §1
# C. difficile ATCC 43255 [1] = assay: MIC and MBC, broth microdilution; settings: Clostridioides difficile, ATCC43255, C. difficile ATCC 43255
# Method: as §1
# C. difficile NR-49288 = assay: MIC and MBC, broth microdilution; settings: Clostridioides difficile, NR49288, C. difficile NR-49288
# Method: as §1
# C. difficile I9 = assay: MIC and MBC, broth microdilution; settings: Clostridioides difficile, C. difficile I9
# Method: as §1
# C. difficile P6 = assay: MIC and MBC, broth microdilution; settings: Clostridioides difficile, C. difficile P6
# Method: as §1
# C. difficile ATCC 43255 [2] = assay: Spore inhibition assay; settings: C. difficile ATCC 43255, ½×MIC or 1×MIC, five days
# Method: (§2) The spore inhibition assay was performed as described in previous reports to investigate the effect of diiodohydroxyquinoline on C. difficile spore formation. Briefly, […], the bacterial suspension was split into microcentrifuge tubes and drugs were added (in triplicates) at concentrations equal to ½×MIC or 1×MIC. Tubes were then, incubated anaerobically for five days at 37° C. Thereafter, an aliquot from each tube was diluted and plated on BHIS agar plates supplemented with 0.1% taurocholic acid, to count the total bacterial counts (vegetative bacteria+spores). The remaining solution was centrifuged, and the pellet was suspended in PBS, stored overnight at 4° C., and subsequently shock-heated at 70° C. for 30 minutes to kill the vegetative cells. The resulting solution was serially diluted and plated to determine the heat-resistant spore counts. Spore inhibition assay was performed as described in previous reports to investigate the effect of DIHQ on C. difficile spore formation. Briefly, log-phase cultures of C. difficile strains (ATCC BAA-1870, ATCC 43255, and NR-49277) were diluted in BHIS to an initial density of ˜10^6 CFU/mL. Afterwards, the bacterial suspension was split in small tubes and the drugs were added (in triplicates) at concentrations equal to ½×MIC or 1×MIC. Tubes were then incubated anaerobically for 5 days at 37° C. After that, an aliquot from each tube was diluted and plated on BHIS agar plates supplemented with 0.1% taurocholic acid, to count the total bacterial count (vegetative bacteria+spores). The remaining solution was centrifuged, and the pellet was suspended in PBS and stored overnight at 4° C. then shock heated at 70° C. for 30 minutes to kill the vegetative cells. The resulting solution was serially diluted and plated to determine the heat-resistant spore counts.
# C. difficile NR-49277 = assay: Spore inhibition assay; settings: C. difficile NR-49277, ½×MIC or 1×MIC, five days
# Method: as §2
# [3] = test system: C. difficile ATCC BAA-1870; assay: Spore inhibition assay; settings: C. difficile ATCC BAA-1870, ½×MIC or 1×MIC, five days
# Method: as §2
smiles,measurement,setting,value
"Cc1ncc([N+](=O)[O-])n1CCO [Metronidazole, metronidazole]",MBC,C. difficile I13; read-out: MBC,0.5 µg/mL
same,MIC,C. difficile I13; read-out: MIC,0.25 µg/mL
same,MBC,C. difficile HM-745; read-out: MBC,0.5 µg/mL
same,MIC,C. difficile HM-745; read-out: MIC,0.5 µg/mL
same,MBC,C. difficile P3; read-out: MBC,0.25 µg/mL
same,MIC,C. difficile P3; read-out: MIC,0.25 µg/mL
same,MBC,C. difficile P30; read-out: MBC,0.5 µg/mL
same,MIC,C. difficile P30; read-out: MIC,0.5 µg/mL
same,MBC,C. difficile NR-49278; read-out: MBC,0.5 µg/mL
same,MIC,C. difficile NR-49278; read-out: MIC,0.25 µg/mL
same,MBC,C. difficile I11; read-out: MBC,0.25 µg/mL
same,MIC,C. difficile I11; read-out: MIC,0.25 µg/mL
same,MBC,C. difficile I10; read-out: MBC,0.25 µg/mL
same,MIC,C. difficile I10; read-out: MIC,0.25 µg/mL
same,MBC,C. difficile NR-49285; read-out: MBC,0.5 µg/mL
same,MIC,C. difficile NR-49285; read-out: MIC,0.25 µg/mL
same,MBC,C. difficile P15; read-out: MBC,0.25 µg/mL
same,MIC,C. difficile P15; read-out: MIC,0.25 µg/mL
same,MBC,C. difficile P5; read-out: MBC,0.25 µg/mL
same,MIC,C. difficile P5; read-out: MIC,0.25 µg/mL
same,MBC,C. difficile ATCC 1801; read-out: MBC,0.25 µg/mL
same,MIC,C. difficile ATCC 1801; read-out: MIC,0.25 µg/mL
same,MBC,C. difficile P20; read-out: MBC,0.25 µg/mL
same,MIC,C. difficile P20; read-out: MIC,0.25 µg/mL
same,MBC,C. difficile I6; read-out: MBC,0.25 µg/mL
same,MIC,C. difficile I6; read-out: MIC,0.25 µg/mL
same,MBC,C. difficile P19; read-out: MBC,0.25 µg/mL
same,MIC,C. difficile P19; read-out: MIC,0.25 µg/mL
same,MBC,C. difficile ATCC 43255 [1]; read-out: MBC,0.25 µg/mL
same,MIC,C. difficile ATCC 43255 [1]; read-out: MIC,0.25 µg/mL
same,MBC,C. difficile NR-49288; read-out: MBC,0.25 µg/mL
same,MIC,C. difficile NR-49288; read-out: MIC,0.25 µg/mL
same,MBC,C. difficile I9; read-out: MBC,0.06 µg/mL
same,MIC,C. difficile I9; read-out: MIC,0.06 µg/mL
same,MBC,C. difficile P6; read-out: MBC,0.25 µg/mL
same,MIC,C. difficile P6; read-out: MIC,0.25 µg/mL
same,reduction in spore count (in words),C. difficile ATCC 43255 [2],almost no reduction
same,reduction in spore count (in words),C. difficile NR-49277,almost no reduction
same,reduction in spore count (in words),[3],almost no reduction
